According to patent US10689335B2, “Hydrogen sulfide precursors and conjugates thereof” (Georgia State University Research Foundation, Inc., priority 2015, dated 2020):
Blank lines part the entries; values can stand above or below the molecule they belong to.

Key:
[1] = system: TNF-α secretion in RAW 264.7 cells; assay: Anti-inflammation study: TNF-α in LPS-stimulated RAW 264.7 cell culture supernatant (ELISA); assay type: cell-based; settings: 1 hour co-treatment with 1 unit/mL esterase and 1 μg/mL LPS
Experimental: RAW 264.7 cells were seeded in the 48-well plate one day before the experiment. Lipopolysaccharide was added into the cell culture to initiate the inflammatory response in RAW 264.7 cells and to trigger the expression of cytokines. RAW 264.7 cells were co-treated with HPs (HP-101, HP-102, HP-103, HP-104) or iHPs, 1 unit/mL esterase and 1 μg/mL of LPS for 1 hour. Thereafter, the cell culture supernatant was collected. The concentrations of TNF-α in the cell culture supernatant was quantified by a commercial ELISA kit (ELISA Ready-SET-Go!®-eBioscience).

porcine liver esterase = assay: Esterase-induced H2S release detected with fluorescent probe WSP-5; assay type: biochemical; settings: 200 μM, porcine liver esterase 4 u/mL in PBS at 37° C.
Experimental: The ability of esterases to release hydrogen sulfide, as shown in Scheme 17, was examined using a well-known hydrogen sulfide fluorescent probe WSP-5 (3-oxo-3H-spiro[isobenzofuran-1,9′-xanthene]-3′,6′-diyl bis(2-(pyridin-2-yldisulfanyl)benzoate) to detect its production in the hydrogen sulfide precursor (HP) reaction mixture. A 200 μM solution of HP 10 was treated with porcine liver esterase (Aldrich, E2884), 4 u/mL) in PBS at 37° C., then 5 μL reaction mixture was taken into 995 μL acetonitrile and detected using WSP-5. The results are shown in FIG. 1 which indicate that HP 10 releases H2S in phosphate buffer saline with 4 units of esterase.
Because of the high volatility of H2S, when the escape rate is greater than formation rate, the concentration decreases. The peak concentration of H2S also appeared within about 25 min.
HP-101 (final concentration: 200 μM) or other control compounds were added to PBS (10 mL) buffer containing esterase (1 unit/mL) at 37° C. After 15 minutes, aliquots of 100 μL samples were taken out and added into 100 μL PBS containing 50 μM WSP-5 and 100 μM CTAB in 96-well plate. After mixing and standing for 5 min at room temperature, the fluorescent intensities at 535 nm were recorded by a plate reader with excitation at 485 nm. (FIG. 1). […]

esterase = assay: Esterase triggered lactone formation monitored by LC-MS/MS; assay type: biochemical
Experimental: The release of hydrogen sulfide and its release rate were detected using LC-MS. A 200 μM HP 10 reaction mixture was treated with esterase for 25 min which led to formation of more than 180 μM of the lactone product as shown in FIG. 2.
HP-101 (final concentration: 200 μM) was added to PBS (10 mL) with 1 unit/mL esterase at 37° C. Reaction mixture (10 μL) was taken out every 3 minutes and added into a vial containing 990 μL methanol at −78° C. for 5 minutes. The mixture (14.5×1000 rp) was centrifuged, and the supernatant was used as the sample for LC-MS/MS analysis (Agilent 1100 LC, 6410 TripleQ MS/MS, Ion transition: 205.0/135.0, positive mode).

[2] = system: esterases produced by the cells; assay: H2S release from HP-101 in cell culture media (ISO-H2S-2 electrode); settings: 200 μM, 37° C.
Experimental: The in vitro release of H2S from HP-101 was studied under various conditions such as HP-101 (200 μM) in DMEM media (5 mL), cell+DMEM media without FBS, and cell+DMEM media with FBS.
HP-101 (200 μM) was added to an incubation chamber (World Precision Instruments; WPI) containing cell culture media (10 mL) at 37° C. H2S formation was detected with the use of an ISO-H2S-2 probe attached to an Apollo 1100 Free Radical Analyser and shown as picoamps current generated. A standard curve (using Na2S.9H2O) was also generated under the same conditions.

PLE [3] = assay: H2S concentration measurement by electrode probe ISO-H2S-2 in phosphate buffer with esterase; assay type: biochemical, pig; settings: 200 μM precursor in PBS at 37° C. with 1 unit/mL PLE
Experimental: HPs (compounds HP-101, HP-102, HP-103, HP-104; final concentration=200 μM) were added to an incubation chamber (World Precision Instruments; WPI) containing phosphate buffer (10 mM; pH 7.4, 10 mL), and esterase (1 unit/mL) at 37° C. H2S formation was detected with the use of a 2-mm H2S-selective microelectrode (ISO-H2S-2; WPI) attached to an Apollo 1100 Free Radical Analyser (WPI) and shown as picoamps current generated. A standard curve (using Na2S.9H2O) was generated by following literature procedures, but using PBS containing esterase at 37° C. (FIG. 4).
H2S release from these precursors was studied (FIG. 4). […] For 200 μM of the precursor compound in PBS at 37° C. with 1 unit/mL PLE, the peak H2S concentration for the fastest one, HP-101, was about 95 μM at 15 min; and for the slowest one, HP-104, it was about 13 μM at 43 min.

PLE [4] = assay: Esterase-triggered release of H2S and parent drug from hybrid precursor (methylene blue method, HPLC); assay type: biochemical, pig; settings: 200 μM in phosphate buffer pH 7.4, PLE 20 unit/mL, 37° C.
Experimental: To a 9.9 mL phosphate buffer (pH 7.4) solution was added 11.1 mg (200 unit) PLE, followed by the addition of 100 μL 20 mM HP-105 stock solution (final concentration: 200 μM). The resultant solution was sealed and stirred at 37° C. At every 30 min, 200 μL of reaction solution was taken into a 1.5 mL vial containing 200 μL zinc acetate (1%, w/v). Then the vial was centrifuged for 10 min. (14.5×1000 rp). The supernatant was removed and the precipitate was washed with PBS solution (100 μL×2). 600 μL of N,N-dimethyl-1,4-phenylenediaminesulfate (0.2% w/v in 20% H2SO4 solution) and 50 μL ferric chloride (10% w/v in 0.2% H2SO4 solution) was added to the vial. Then the vial was centrifuged for 5 min (14.5×1000 rp). The absorbance (at 740 nm) of the resulting solution was measured (after stirring for 10 min). H2S concentration was calculated based on a calibration curve of NaHS. (FIG. 7A).

SMILES: C1COCCN1.COc1ccc(P(=S)(S)N2CCOCC2)cc1 (stereo not shown) [GYY 4137]
effect on TNF-α secretion [1]: effectively inhibited TNF-α secretion

SMILES: CC(=O)Oc1cc(C)cc(C)c1C(C)(C)CC(=O)S [HP 10, 3-(2-acetoxy-4,6-dimethylphenyl)-3-methylbutanethioic S-acid]
H2S release detected using WSP-5 (porcine liver esterase): releases H2S | lactone product formed (esterase; 200 μM reaction mixture treated with esterase for 25 min): more than 180 μM | H2S released (esterase; 200 μM, esterase, 25 min, inferred from lactone formed): more than 90%

SMILES: CC(=O)Oc1cc(C)cc(C)c1C(C)(C)CC(=O)[S-].[Na+] [HP-101, Sodium 3-(2-acetoxy-4,6-dimethylphenyl)-3-methylbutanethioate]
H2S release in media collected after overnight of cell culture [2]: released at a moderate rate | H2S release in DMEM alone ([2]; DMEM media without cells): did not release H2S | peak H2S concentration (PLE [3]): about 95 μM | time of peak H2S concentration (PLE [3]): 15 min

generation of naproxen and H2S by treatment with an esterase (PLE [4]): could generate naproxen and H2S
SMILES: COc1ccc2cc([C@H](C)C(=O)Oc3cc(C)cc(C)c3C(C)(C)CC([O-])=S)ccc2c1.[Na+] [HP-105, Sodium (S)-3-(2-((2-(6-methoxynaphthalen-2-yl)propanoyl)oxy)-4,6-dimethylphenyl)-3-methylbutanethioate]

SMILES: [Na+].[Na+].[S-2] [Na2S]
effect on TNF-α secretion [1]: pro-inflammatory effect
